Earlier results, collected in patent US20250009647A1, “PHARMACEUTICAL COMPOSITION” (priority 2021, published 2025).

Columns and labels:
[1] = in water
[2] = in DMSO

| pKa(H2O) [1] | Compound | pKa(DMSO) [2] |
| --- | --- | --- |
| 2.67 | O=C(O)c1cc2ccccc2c(Cc2c(O)c(C(=O)O)cc3ccccc23)c1O [Pamoic acid] | – |
| 0.99 | NS(=O)(=O)O [Sulfamic acid] | 6.5 |

| Compound | pKa(H2O) [1] | pKa(DMSO) [2] |
| --- | --- | --- |
| O=C(O)C(=O)O [Oxalic acid] | 1.46 | 6.2 |
